{"source": "patent US8182793B2", "about": "“Sunless tanning products and processes” (Concept Laboratories, priority 2004, dated 2012)", "key": {"[1]": {"assay": "Water activity (aw) measured with Aqualab 3TE instrument", "assay_type": "physicochemical", "conditions": "for Reduction of water activity compared with other screened materials (in words): additive screening, aqueous solutions", "source_text": "There is no device that can be put into a product to directly measure the water activity. However, the water activity of a product can be determined, indirectly, from the relative humidity of the air surrounding the sample when the air and the sample are at equilibrium. Therefore, the sample must be in an enclosed space where this equilibrium can take place. Once this occurs, the water activity of the sample and the relative humidity of the air are equal. The measurement taken at equilibrium is called an equilibrium relative humidity or ERH.\nIn practice, water activity can be determined by use of the Aqualab© (Decagon, Inc., Pullman, Wash.) or HygroLab© (Rotronic, Inc., Huntington, N.Y.). For all of the experimental water activity data recorded and detailed in this application, an Aqualab 3T-E instrument with an accuracy of +/−0.003 units and with automatic temperature equilibration (23.7+/−0.2° C.) capability was utilized.\nIn the AquaLab instrument, a sample is equilibrated within the headspace of a sealed chamber containing a mirror, an optical sensor, an internal fan, and an infrared temperature sensor. At equilibrium, the relative humidity of the air in the chamber is the same as the water activity of the sample. A thermoelectric (Peltier) cooler precisely controls the mirror temperature. An optical reflectance sensor detects the exact point at which condensation first appears. A beam of infrared light is directed onto the mirror and reflected back to a photodetector which detects the change in reflectance when condensation occurs on the mirror. A thermocouple attached to the mirror accurately measures the dew-point temperature. The internal fan is for air circulation, which reduces vapor equilibrium time and controls the boundary layer conductance of the mirror surface. Additionally, a thermopile sensor (infrared thermometer) measures the sample surface temperature. Both the dew point and sample temperatures are then used to determine the water activity. During a water activity measurement, the AquaLab repeatedly determines the dew-point temperature until vapor equilibrium is reached. Since the measurement is based on temperature determination, calibration is not necessary, but measuring a standard salt solution checks proper functioning of the instrument. If there is a problem, the mirror is easily accessible and can be cleaned in a few minutes.\nSunless tanning formulations typically contain 3-10% by weight of DHA as the primary tanning agent dissolved in water. DHA is a water soluble sugar, and, as with other sugars or solutes will decrease the water activity as compared to pure water (aw=1.00). Solutes dilute the water, increasing its entropy and therefore lowering its energy state. These two effects combine to lower the total free energy of the water.\nAn arbitrary upper limit of 0.900 for aqueous solutions of additives was set for the screening studies. In other words, any cosmetic or pharmaceutical additive investigated must lower the aw of water from 1.000 to 0.900 or below when tested at a concentration that was judged to be the upper practical limit for inclusion based on safety and general cosmetic acceptability."}, "skin [2]": {"system": "skin", "assay": "Tanning response on forearm skin, visual assessment of color development on a 1-6 point scale", "assay_type": "in vivo, human", "experimental": "Simple aqueous formulations of dihydroxyacetone and sodium lactate were first evaluated for tanning response on skin. The formulations evaluated and the tanning responses obtained are shown in Tables 3 (formulations) and Table 4 (tanning response of Table 3 formulas).\n(§1) An equal amount of each formula (approximately 150 mg.) from Table 3 was applied to 2″×2″ adjacent sections of forearm, allowed to dry and covered with clothing for the duration of the testing. The application areas were visibly the same color prior to treatment with the solutions and this was confirmed via calorimeter readings. Visual assessment of color development was made 24 hours post application using a 1-6 point scale with 1 signifying no color development versus non-treated skin, 3 signifying moderate color development and 6 signifying intensely dark color development. A commercial sunless tanning solution containing 10% DHA was used as a positive control.\nas §1, with “As before, an equal” for “An equal”, “Table 5” for “Table 3”, “via colorimeter” for “via calorimeter”, “24 hours and at 48” for “24”, “development.” for “development. A commercial sunless tanning solution containing 10% DHA was used as a positive control.”\nA control formula containing 10% DHA, 5% butylene glycol and 5% methylsulfonylmethane was used as a positive control. Past studies as outlined in applicants' co-pending application Ser. No. 10/382,868 titled SUNLESS TANNING PRODUCTS AND PROCESSES, filed on Mar."}, "stratum corneum": {"system": "stratum corneum", "assay": "In vivo water binding capacity, Nova Dermal Phase Meter (conductance)", "conditions": "added to aqueous solutions of DHA", "experimental": "In addition to the water activity screening and the tanning experiments conducted with simple aqueous solutions of DHA, sodium lactate, and glycols, objective instrumental testing for in vivo water binding capacity of these DHA-sodium lactate-glycol solutions was conducted.\nThe Nova Meter measures water content of the top layers of the skin indirectly via conductance measurements."}, "[3]": {"conditions": "moisture loss figure, Purac citation (Osipow); cited from earlier work"}, "skin [4]": {"system": "skin", "conditions": "earlier studies of the applicant in prior filings Ser. No. 10/382,868 & 10/694,972; cited from earlier work"}}, "note": "Where two headings read alike, the source gives them in different places."}
{"smiles": "CC(O)C(=O)[O-].[Na+]", "note": "(stereo not drawn) [Sodium Lactate, sodium lactate]", "values": [{"measurement": "Water Activity (aw)", "setting": "[1]; Sodium Lactate 6.0 % w/w", "value": 0.991}, {"measurement": "Water Activity (aw)", "setting": "[1]; Sodium Lactate 12.0 % w/w", "value": 0.944}, {"measurement": "Water Activity (aw)", "setting": "[1]; Sodium Lactate 18.0 % w/w", "value": 0.913}, {"measurement": "Water Activity (aw)", "setting": "[1]; Sodium Lactate 24.0 % w/w", "value": 0.880}, {"measurement": "Water Activity (aw)", "setting": "[1]; Sodium Lactate 30.0 % w/w", "value": 0.840}, {"measurement": "Reduction of water activity compared with other screened materials (in words)", "setting": "[1]", "value": "capable of reducing the water activity to a greater extent than any other material screened"}, {"measurement": "Water activity (Aw)", "setting": "[1]; aqueous solutions at concentrations of 25% w/w or less", "value": "below 0.900"}, {"measurement": "Concentration meeting the screening criterion of reduction of aw to 0.900 or less", "setting": "[1]; read from Table 2", "value": "18-24%"}, {"measurement": "Effect on the tanning response of DHA", "setting": "skin [2]; added to 5% DHA solutions", "value": "enhancement of the tanning response was recorded"}, {"measurement": "Effect on the tanning response of DHA", "setting": "skin [2]; use concentrations of 0.5-5.0%", "value": "Enhance the tanning response of DHA"}, {"measurement": "Water holding capacity of the stratum corneum (moisturizing effect)", "setting": "stratum corneum", "value": "improve the water holding capacity of the stratum corneum"}, {"measurement": "Water-holding capacity", "setting": "[3]", "value": "double the capacity of glycerin"}]}
{"smiles": "CC(O)C(=O)O", "note": "(stereo not drawn) [lactic acid]", "values": [{"measurement": "Effect on the tanning response of DHA", "setting": "skin [2]; added to 5% DHA solutions", "value": "enhancement of the tanning response was recorded"}, {"measurement": "Water-holding capacity", "setting": "[3]", "value": "equal water-holding capacity"}]}
{"smiles": "OCC(O)CO", "note": "[glycerol, reference compound]", "values": [{"measurement": "Lowering of water activity compared with other glycols (in words)", "setting": "[1]; 10% in 10% DHA solution, Table 1", "value": "lower the water activity to a greater extent than the other glycols evaluated"}, {"measurement": "Effect on the tanning response of DHA", "setting": "skin [4]", "value": "somewhat of an inhibitory effect on the tanning response of DHA"}, {"measurement": "Water-holding capacity", "setting": "[3]", "value": "equal water-holding capacity"}]}
{"smiles": "O=C1CCC(C(=O)[O-])N1.[Na+]", "note": "(stereo not drawn) [Sodium PCA, sodium pyrrolidone carboxylic acid]", "values": [{"measurement": "Reduction of water activity compared with other screened materials (in words)", "setting": "[1]", "value": "capable of reducing the water activity to a greater extent than any other material screened"}]}
